The subject of test [1] is coagulation factors. Nature of the test: Plasminogenesis, coagulation and anti Xa in the stasis-induced thrombosis model. It counts as in vivo, rat. Here is the method: A laparotomy was performed to open the lower vena cava, on which a ligature was placed at T0, followed by subcutaneous injection of glycine betaine at T0+2 hours, followed by withdrawal of the clot and blood samples at T0+6 hours.

The subject of test [2] is platelet aggregation induced with collagen. Nature of the test: Aggregation induced with collagen. It counts as in vivo, rat. The conditions noted are these: collagen 10 μgr/ml. Here is the method: The aggregation is made in accordance to the methods of Cardinal & Flower. Pharmacol. Method. 1980, and to American Journal of Clinical Pathology, 1989; 92: 676-679, Sureney. J D. Whole Blood aggregometry. After a keeping period of 8 days, the rats are subjected to a fasting for 12 hours. Betaine is subcutaneously injected one hour before blood sampling. The rats are then anaesthetised with sodium Thiopental administered at a dose of 200 mg/Kg and the blood samples are taken by intracardiac puncture on a trisodium citrate solution (1 volume of solution at 3.8% citrate for 9 volumes of blood).
• This example evaluates aggregation induced with collagen. • Collagen concentration 10 μgr/ml

The test system of test [3] is platelet aggregations induced by ADP, collagen, epinephrine, adrenaline, thrombin, ristocetine, arachidonic acid. Nature of the test: Human in vivo test, induced platelet aggregations in heavy smokers. The settings on record: two heavy smokers, oral capsules 5 g/day during 7 days. Here is the method:
This example describes a human in vivo test. Two volunteers (with a weight of about 70-75 kg), considered as heavy smokers (smoking more than 10 cigarettes/day) have orally taken capsules (gastro soluble) containing 5 g anhydrous glycine betaine/day during 7 days. Before administration of the betaine, the aggregations induced by ADP, by collagen, by epinephrine, by adrenaline, by thrombin, by ristocetine and by arachidonic acid were determined. After one week of treatment, the same platelet aggregations were measured. It appeared from said tests that all the induced platelet aggregations were reduced for all said endogenous agonists of at least 30%. Better results are expected when using oral dosage form with controlled release, such as gastro insoluble, but entero soluble form.

Test [4] relates to induced haemorrhage in rats. In words: Anti-haemorrahgic activity with aspirin or heparin. It is filed as in vivo, rat. The settings on record: glycine betaine 2-50 mg given with 100 mg aspirin or 2 mg heparin, versus aspirin or heparin alone. Here is the method:
This example tested anti-haemorrahgic activity using rats. Some rats received an active agent with haemorrahgic side effect, while other rats received said active agent together with a dose of betaine.
The following products were administered to rats for determining whether glycine betaine has an anti-haemorrahgic effect: • 100 mg aspirin per kg life body • 100 mg aspirin+50 mg glycine betaine per kg life body • 2 mg heparin • 2 mg heparin+50 mg glycine betaine • 2 mg heparin+10 mg glycine betaine • 2 mg heparin+2 mg glycine betaine

Test [5] in a line: Azure A method, in vitro binding of betaine to heparin. How it is done:
This experiment utilized stock solutions of azure A, heparin, betaine, and a betaine-heparin combination in order to determine in vitro binding of betaine to Heparin. The stock solution of azure A was prepared at 4×10^−5 mol L^−1 by solubilizing 58.35 mg azure A in 50 ml of sterile injectable water. Next, 10 ml of this solution was diluted in 90 ml of sterile injectable water. The resulting solution was diluted again by taking 10 ml of this solution and diluting it in 90 ml of sterile injectable water. Finally, the resulting solution is filtered on Watman paper and aliquots of 4 ml are realized. The stock solution of Heparin was prepared by diluting the manufacturer-supplied stock solution (5000 UI/ml having ±150 UI/mg), (LEO Pharma, Ballerup, Denmark). One ml of this supplied solution was diluted in 499 ml of sterile injectable water in order to obtain a 10 UI/ml in final concentration. The betaine stock solution was prepared by diluting betaine in sterile injectable water in order to obtain a final concentration of 10 mg/ml. The Heparin-betaine combination stock solution was prepared by mixing 12 ml of the betaine stock solution prepared as noted above with 14.4 ml of the manufacturer-supplied Heparin stock solution (corresponding to 120 mg of betaine and 480 mg Heparin). This mixture was agitated for 2 minutes while mixing and then incubated for 10 minutes at 20° C. The final combination solution is then prepared by taking 1 ml of the solution after incubation and diluting it in 499 ml of sterile injectable water.
Each stock solution was then tested at six dilutions for its effect on heparin binding to azure A dye. The first dilution consisted of 0 μl solution, 400 μl water and 4 ml azure A solution. The second dilution consisted of 80 μl solution, 320 μl water and 4 ml azure A solution. The third dilution consisted of 160 μl solution, 240 μl water and 4 ml azure A solution. The fourth dilution consisted of 240 μl solution, 160 μl water and 4 ml azure A solution. The fifth dilution consisted of 320 μl solution, 80 μl water and 4 ml azure A solution. The sixth dilution consisted of 400 μl solution, 0 μl water and 4 ml azure A solution. Each dilution was then subjected to the azure A method which is a rapid and simple spectrophotometric method for determining heparin concentration following the formation of a soluble complex between heparin and azure A dye. Chemically, azure A is formed by 3 benzene nuclei and a terminal N^+. This soluble complex changes the typically blue color of the azure dye to purple. The principle of the test is based on the spectrophotometric absorption of the heparin/azure A dye complex at 632 nm. Heparin binding to azure A results in lowered absorbance and the solution gradually turns deeper purple as heparin concentration increases. In the presence of a substance which binds to heparin (e.g., protamine), azure A retains its blue color and absorbance remains constant. The results of this test are provided in the following table which illustrates that no significant change in the absorbance of azure A occurs when betaine is combined with heparin. However, Heparin alone has a significant effect on azure A absorption.

Test [6] concerns arterial thrombosis induced by laser beam in the mesenteric microcirculation of the rat. Nature of the test: Laser-induced thrombosis in the mesenteric microcirculation. It counts as in vivo. The settings on record: oral 50 mg/kg.
The mark [7] stands for this setting: Heparin UI/ml (reference) 2, second dilution, 80 μl stock solution.
The mark [8] stands for this setting: Heparin UI/ml (reference) 4, third dilution, 160 μl stock solution.
The mark [9] stands for this setting: Heparin UI/ml (reference) 6, fourth dilution, 240 μl stock solution.
Setting [10] is: Heparin UI/ml (reference) 8, fifth dilution, 320 μl stock solution.
The mark [11] stands for this setting: Heparin UI/ml (reference) 10, sixth dilution, 400 μl stock solution.

In the case of `C[N+](C)(C)CC(=O)O` [Glycine betaine], the ACT in test [1] (1 mg/kg) was 29.1 ± 2.3 s; in test [1] (2.5 mg/kg) it was 31.2 ± 2.6 s; in test [1] (5 mg/kg), 33.5 ± 1.9 s. Moreover, the “Anti Xa” value in test [1] (1 mg/kg) was 0.08 ± 0.1 units/ml; in test [1] (2.5 mg/kg) it was 0.14 ± 0.10 units/ml; in test [1] (5 mg/kg), 0.35 ± 0.15 units/ml. The results for the Fibrinogen in test [1] (1 mg/kg), in test [1] (2.5 mg/kg) and in test [1] (5 mg/kg) were 2.63 ± 0.3 g/L, 2.2 ± 0.17 g/L and 2.32 ± 0.33 g/L, respectively. Moreover, the values for the Plasminogenesis in test [1] (1 mg/kg), in test [1] (2.5 mg/kg) and in test [1] (5 mg/kg) were 2.44 ± 0.58%, 2 ± 0.15% and 1.66 ± 0.58%, respectively. Moreover, the Quick time is 16.2 ± 1.2 s in test [1] (1 mg/kg), 16.6 ± 0.7 s in test [1] (2.5 mg/kg) and 15.6 ± 0.4 s in test [1] (5 mg/kg). For the same molecule, the Amplitude in test [2] (2.5 mg/kg) is 13.75 +/− 0.96 ohms; in test [2] (5 mg/kg), 5.5 +/− 1.29 ohms; in test [2] (10 mg/kg) it was 1.5 +/− 1.29 ohms. Also, the figures for the Velocity in test [2] (2.5 mg/kg), in test [2] (5 mg/kg) and in test [2] (10 mg/kg) were 9.25 +/− 2.63 ohm/minute, 4.5 +/− 1 ohm/minute and 2 +/− 0.82 ohm/minute, respectively. Further, the “Reduction of induced platelet aggregations (all agonists)” value in test [3] is reported as “at least 30%”. In addition, the “Bleeding time after induced haemorrhage” value in test [4] is listed as “bleeding time was reduced”. Moreover, the “Absorbance of azure A at 632 nm” value in test [5] (setting [7]) is reported as 1.241; in test [5] (setting [8]), 1.213; in test [5] (setting [9]), 1.1937; in test [5] (setting [10]), 1.1612; in test [5] (setting [11]) it was 1.154. In addition, the Number of emboles in test [6] (1 hour) was 0 +/− 0. The Embolisation time in test [6] (48 hours) turned out to be 2 ± 0 min. Further, in test [6] (48 hours), the “Number of laser firing” value is recorded as 2.33 +/− 0.57.

Regarding Heparin, the “Absorbance of azure A at 632 nm” value is 1.0608 in test [5] (setting [7]); 0.8399 in test [5] (setting [8]); 0.5797 in test [5] (setting [9]); 0.358 in test [5] (setting [10]); 0.205 in test [5] (setting [11]).
